Test results published in PMC12208134, “Structure-activity relationships of 1,5-dihydro-2H-benzo[b][1,4]diazepine-2,4(3H)-diones as inhibitors of Trypanosoma cruzi” (RSC medicinal chemistry, 2025).
≈ marks a conversion by molar mass, not a printed value. Where “and” joins values, the source holds several entries; their conditions need not be identical. Equal values may be shown once. Read-outs that look alike come from different tables or passages of the source.

Assays:
[1] = test system: intracellular T. cruzi amastigotes; experiment: T. cruzi intracellular potency assay (high content imaging); format: cell-based, Trypanosoma cruzi; design: key to Max Effect (T. cruzi): % inhibition; 0% = DMSO control, 100% = 16 μM nifurtimox control; conditions: for Hill slope (T. cruzi) / Max Effect (T. cruzi) / pEC50 (T. cruzi) / Emax / EC50: individual replicate; for Emax / EC50 / IC50: Trypanosoma cruzi; for Emax: read-out: Max Effect (T. cruzi); for EC50: read-out: pEC50 (T. cruzi) (converted); for IC50: read-out: T. cruzi pIC50 (converted)
Procedure: (§1) T. cruzi intracellular potency and rate-of-kill assay (high content imaging) ^1
(§2) Silvio X10/7 T. cruzi trypomastigotes were incubated at 37°C 5% CO2 with 1.6×10^7 Vero cells overnight at MOI10 in MEM media supplemented with 10% foetal calf serum (FCS). Extracellular parasites were removed by aspirating cell culture supernatant, and washing Vero monolayer with 10 ml serum-free MEM three times. Vero cells were then harvested by trypsinization and dispensed at 2×10^3 per well (50 μl in MEM/ 1% FCS) into 384 well plates pre-stamped with compounds in DMSO using automated washer/ dispenser EL406 and liquid handling software (Biotek). Plates were then incubated at 37°C in 5% CO2 for 96 h. For rate-of-kill determination, plates were incubated for 24h, 48h, 72h and 96h.
(§3) Plates were subsequently fixed with 4% formaldehyde for 20 min, permeabilised and stained with 5 μgml^-1 Hoechst 33342/ 0.1% Triton/ PBS Thimerosal 20 min. Automated imaging was performed by an Operetta high content imaging system using 20x objective (PerkinElmer). Images were analysed with an algorithm generated in Columbus (PerkinElmer) to segment Vero cell nuclei, Vero cell cytoplasm and parasite nuclei/ kinetoplasts, reporting number of amastigotes per Vero cell, percent infected Vero cells and total number of Vero cells. Compound potencies against T. cruzi parasites were calculated in IDBS Activitybase using percent infected Vero cells and Vero toxicity curves generated using number of host cells. All data was normalised to percent inhibition based on the raw data values for the 100% effect control (16 μM nifurtimox) and the 0% effect control (DMSO) on each plate at each time point. Curve fitting was carried out using a four-parameter equation as previously described. ^2 For rate-of-kill experiments the percent infected cells at each compound concentration was plotted against time.

[2] = Mouse liver microsomal intrinsic clearance; format: in vitro ADME
host Vero cell = experiment: Vero host cell toxicity in the intracellular T. cruzi assay; format: cell-based; design: key to Max Effect (Vero): % inhibition; 0% = DMSO control, 100% = 16 μM nifurtimox control; conditions: for Max Effect (Vero) / pEC50 (Vero) / EC50: individual replicate; for EC50 / IC50: Chlorocebus sabaeus; for EC50: Vero; for IC50: read-out: Vero pIC50 (converted)
Procedure: as §1, §2, §3

[3] = Human liver microsomal intrinsic clearance; format: in vitro ADME
[4] = ChromLogD pH7.4 (chromatographic hydrophobicity index), PFI, LLE; conditions: for PFI: ChromLogDpH7.4 + no. aromatic rings
Description: [23] Alongside PFI, LLE (ligand lipophilic efficiency, T. cruzi pIC50 - ChromLogDpH7.4) was also monitored to identify changes where the impact on potency was not driven by increasing lipophilicity.

[5] = Kinetic aqueous solubility by CAD; format: physicochemical
[6] = intracellular amastigotes in Vero cells, 96 h, mean of N ≥ 3

Compound	Hill slope (T. cruzi) [1]	Max Effect (T. cruzi) [1]	pEC50 (T. cruzi) [1]	Max Effect (Vero) (host Vero cell)	pEC50 (Vero) (host Vero cell)	PFI [4]	Emax [1] [%]	EC50 [1] [µM]	EC50 (host Vero cell) [µM]	IC50 [1, 6] [µM]	MLM CLi ([2]; mouse, microsomes) [mL/min/g]	IC50 (host Vero cell; host Vero cell) [µM]	HLM CLi ([3]; human, microsomes) [mL/min/g]	chromatographic logD ([4]; pH 7.4)	solubility ([5]; kinetic from dmso stock) [µM]	other results
3-amino-6-fluoro-1-(4-methoxybenzyl)-5-(4-methoxyphenyl)-1,5-dihydro-2H-benzo[b][1,4]diazepine-2,4(3H)-dione [Compound 22]	11.8 and 10.3 and 3.4 and 21.3	77 and 98 and 83 and 82	7.2	3.52 and 24 and 2 and 12	< 4.3	7.2										T. cruzi pIC50 [1, 6]: 7.2 ± 0.0; MLM CLi ([2]; mouse liver microsomes): 2.2 mL/min/g; Vero pIC50 (host Vero cell; host Vero cell): <4.3; HLM CLi ([3]; human liver microsomes): <0.4 mL/min/g; Chrom LogDpH7.4 ([4]; pH 7.4): 4.2; solubility ([5]; kinetic, CAD, read-out: Aqueous solubility): 168 µM
CC(C)N(C(=O)CN1C(=O)C(N)C(=O)N(c2ccccc2)c2ccccc21)c1ccccc1 (single isomer, unassigned) [14-Ent 1, 2-(3-amino-2,4-dioxo-5-phenyl-2,3,4,5-tetrahydro-1H-benzo[b][1,4]diazepin-1-yl)-N-isopropyl-N-phenylacetamide]	3.1 and 5.7	88	6.4	27 and 35	< 4.3		94	0.316	> 50.1							
CC(C)N(C(=O)CN1C(=O)C(N)C(=O)N(c2ccccc2)c2ccccc21)c1ccccc1 (single isomer, unassigned) [14-Ent 2, 2-(3-amino-2,4-dioxo-5-phenyl-2,3,4,5-tetrahydro-1H-benzo[b][1,4]diazepin-1-yl)-N-isopropyl-N-phenylacetamide]	85.9 and 4.0	82	6.7 and 6.6	5.45 and 20	< 4.3											
O=C(Nc1ccc(F)cc1)NC1C(=O)Nc2ccccc2N(c2ccccc2)C1=O (centres unmarked) [Compound 3, 1-(2,4-dioxo-1-phenyl-2,3,4,5-tetrahydro-1H-benzo[b][1,4]diazepin-3-yl)-3-(4-fluorophenyl)urea]	2.0 and 0.8 and 2.1 and 1.3	92 and 95 and 83	5.1 and 4.8	-12 and 14 and 22 and 36		7.4	90	12.6	> 50.1	10	0.6	> 50.1	<0.4	4.4	26 (≈ 10.5 µg/mL)	
COc1ccccc1N1C(=O)C(NC(=O)Nc2ccc(C)cc2)C(=O)Nc2ccccc21 (centres unmarked) [Compound 6, 1-(1-(2-methoxyphenyl)-2,4-dioxo-2,3,4,5-tetrahydro-1H-benzo[b][1,4]diazepin-3-yl)-3-(p-tolyl)urea]	2.9 and 3.1 and 3.8 and 11.3	81 and 90 and 77	4.6 and 4.3	38 and 21 and 11 and 12		7.7	79	31.6	> 50.1	31.6	2.1	> 50.1	<0.4	4.7	129 (≈ 55.5 µg/mL)	
